Measurements taken from paper PMC4418806 (Biochemistry, 2009).
Substitutions are numbered along the chain they refer to. Each block holds one molecule with its values, some of them ahead of it.

Tests used:
[1] = target: T1, Escherichia coli biotin synthase (BioB), His6-BioB (Escherichia coli, UniProt P12996, N153Q); experiment: […] kDa centrifugal filtration binding assay, HPLC
T1 sequence (P12996 1-346 N153Q): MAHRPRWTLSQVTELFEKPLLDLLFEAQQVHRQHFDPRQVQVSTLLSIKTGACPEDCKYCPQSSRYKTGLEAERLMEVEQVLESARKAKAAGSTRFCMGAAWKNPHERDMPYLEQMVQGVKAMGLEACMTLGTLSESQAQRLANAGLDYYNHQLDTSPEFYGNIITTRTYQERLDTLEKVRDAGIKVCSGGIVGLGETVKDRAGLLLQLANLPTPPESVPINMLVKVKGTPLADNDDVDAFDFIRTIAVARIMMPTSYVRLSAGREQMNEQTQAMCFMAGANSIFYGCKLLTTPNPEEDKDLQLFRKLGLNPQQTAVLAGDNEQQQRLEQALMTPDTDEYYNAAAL

[2] = target: T2, Escherichia coli biotin synthase (BioB), His6-BioB (Escherichia coli, UniProt P12996, N153S); experiment: […] kDa centrifugal filtration binding assay, HPLC
T2 sequence (P12996 1-346 N153S): T1 sequence (P12996 1-346 N153Q) with Q153S

[3] = target: T3, Escherichia coli biotin synthase (BioB), His6-BioB (Escherichia coli, UniProt P12996); experiment: […] kDa centrifugal filtration binding assay, HPLC
T3 sequence (P12996 1-346): T1 sequence (P12996 1-346 N153Q) with Q153N

[4] = target: T3, Escherichia coli biotin synthase (BioB), His6-BioB; experiment: […] kDa centrifugal filtration of assay mixture, HPLC; type: binding; conditions: 50 μM enzyme, intermediate formed in situ, after 2 h assay, anaerobic

SMILES: C[S+](CC[C@H](N)C(=O)O)C[C@H]1O[C@@H](n2cnc3c(N)ncnc32)[C@H](O)[C@@H]1O (stereo partly shown) [AdoMet]
Kd [1]: 530 ± 180 µM
Kd [2]: 3 ± 1 µM
Kd [3]: 1 ± 0.5 µM

% bound to protein [4]: ~ 50%
SMILES: O=C(O)CCCCC[C@H]1NC(=O)N[C@H]1CS [9-MDTB]

SMILES: C[C@@H]1NC(=O)N[C@@H]1CCCCCC(=O)O [DTB]
Kd [1]: 110 ± 30 µM
Kd [2]: 11 ± 3 µM
Kd [3]: 0.5 ± 1 µM
